Paper PMC4569708, “Synergistic activation of human pregnane X receptor by binary cocktails of pharmaceutical and environmental compounds” (Nature Communications, 2015)

T1: PXR (Homo sapiens, UniProt O75469)
T1 sequence (O75469 107-434): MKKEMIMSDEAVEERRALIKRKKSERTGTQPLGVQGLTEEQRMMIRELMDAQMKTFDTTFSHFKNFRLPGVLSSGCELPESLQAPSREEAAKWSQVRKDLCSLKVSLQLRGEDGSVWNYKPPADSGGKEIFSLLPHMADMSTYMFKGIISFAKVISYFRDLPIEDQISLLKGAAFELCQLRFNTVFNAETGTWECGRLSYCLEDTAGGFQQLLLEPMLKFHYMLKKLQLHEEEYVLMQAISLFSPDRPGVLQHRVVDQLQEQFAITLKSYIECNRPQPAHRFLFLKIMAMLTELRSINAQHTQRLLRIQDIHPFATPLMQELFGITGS

T2: PXR LBD (Homo sapiens, UniProt O75469)
T2 construct: Purified PXR(130-434)-SRC-1 was dialysed overnight; His6 (N); made in house; host or cells: E. coli BL21(DE3)
T2 sequence (O75469 with tags, fused parts or gaps limits assumed): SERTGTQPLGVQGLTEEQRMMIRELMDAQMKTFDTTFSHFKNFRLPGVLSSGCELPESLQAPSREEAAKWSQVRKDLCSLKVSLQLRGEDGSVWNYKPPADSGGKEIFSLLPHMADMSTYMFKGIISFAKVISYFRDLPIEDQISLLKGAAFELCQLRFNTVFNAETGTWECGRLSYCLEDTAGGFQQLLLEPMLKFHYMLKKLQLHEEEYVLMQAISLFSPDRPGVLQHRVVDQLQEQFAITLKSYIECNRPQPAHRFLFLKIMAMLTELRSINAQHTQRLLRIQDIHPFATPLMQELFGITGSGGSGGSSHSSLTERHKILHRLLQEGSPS

T3: fluorescein-labelled NR interaction domain (NID) of SRC-1 (residues 570-780) (UniProt Q15788 570-780, fluorescein at the C-terminus (cys-fluor added on intein cleavage))
T3 chain: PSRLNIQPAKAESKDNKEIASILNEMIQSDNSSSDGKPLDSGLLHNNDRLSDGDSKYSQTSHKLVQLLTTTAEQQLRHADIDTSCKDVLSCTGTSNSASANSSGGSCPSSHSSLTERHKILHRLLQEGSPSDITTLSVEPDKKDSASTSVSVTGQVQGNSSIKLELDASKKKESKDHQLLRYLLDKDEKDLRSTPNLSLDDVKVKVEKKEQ

B1: PXR/RXR LBD heterodimer (complex)
chain 1: SERTGTQPLGVQGLTEEQRMMIRELMDAQMKTFDTTFSHFKNFRLPGVLSSGCELPESLQAPSREEAAKWSQVRKDLCSLKVSLQLRGEDGSVWNYKPPADSGGKEIFSLLPHMADMSTYMFKGIISFAKVISYFRDLPIEDQISLLKGAAFELCQLRFNTVFNAETGTWECGRLSYCLEDTAGGFQQLLLEPMLKFHYMLKKLQLHEEEYVLMQAISLFSPDRPGVLQHRVVDQLQEQFAITLKSYIECNRPQPAHRFLFLKIMAMLTELRSINAQHTQRLLRIQDIHPFATPLMQELFGITGS
chain 2: TSSANEDMPVERILEAELAVEPKTETYVEANMGLNPSSPNDPVTNICQAADKQLFTLVEWAKRIPHFSELPLDDQVILLRAGWNELLIASFSHRSIAVKDGILLATGLHVHRNSAHSAGVGAIFDRVLTELVSKMRDMQMDKTELGCLRAIVLFNPDSKGLSNPAEVEALREKVYASLEAYCKHKYPEQPGRFAKLLLRLPALRSIGLKCLEHLFFFKLIGDTPIDTFLMEMLEAPHQMT

What was measured:
PXR [1] = biological target: T1, PXR; assay: Medium-throughput screening, HG5LN GAL4-PXR-LBD reporter cell line (HeLa); details: HG5LN GAL4-PXR reporter cells; 3 µM SR12813 = 100% activation; determined prior to the screening
Source text: Using medium-throughput ligand screening and a mammalian (HeLa) cell-based activation assay (HG5LN GAL4-PXR-LBD reporter cell line)[14][15], we monitored the agonistic potential of 40 chemicals either alone or in binary mixtures (Supplementary Table 1). […] We next examined the effect of TNC, EE2, and their combination in human liver (HepG2) and colon (LS174T) carcinoma cell lines containing the full-length PXR and the CYP3A4-XREM luciferase reporter plasmids.
LS174T stable human PXR transfectant (LS-PXR2) and the corresponding control cells (LS-CTRL), HEPG2-PXR and HG5LN GAL4-PXR reporter cell lines were previously described. […] HEPG2-PXR was obtained after stable transfection of the same PXR expressing plasmid and the XREM-CYP3A4 pGL3b reporter plasmid. […] Finally, LS174T-PXR reporter cell line was established by stable transfection of the CYP3A4-luciferase-hygromycine plasmid in the LS-PXR2 cell line. All cell lines were grown in DMEM medium (Invitrogen) supplemented with 10% fetal calf serum, L-glutamine, and antibiotics (Invitrogen).
HG5LN GAL4-PXR reporter cell lines (100 μl) were seeded at a density of 25,000 cells per well in 96-well white opaque tissue culture plates (Greiner CellStar). […] Then the ligand to be tested in combination with the different ligands was added (50 μl). Cells were incubated at 37 °C for 16 h. At the end of the incubation period, culture medium was replaced with medium containing 3.10^−4 M luciferin. Luciferase activity was measured for 2 s in intact living cells using a plate reader (PerkinElmer Luminometer).
Supplementary Table 1 | Compounds used for screening
#For each ligand, the concentration used was determined prior to the screening experiment. It represents the dose at which the
synthetized in the laboratory4. **Compounds purchased from Tocris Biosciences. ***Compounds purchased by Sigma
Aldrich.****Gift from Sanofi Aventis. All compound stock solutions were prepared at 10 mM in DMSO.

PXR LBD = biological target: T2, PXR LBD; assay: Non-denaturing ESI-MS of ligand binding
Procedure: Figure 4 Simultaneous binding of EE2 and TNC to PXR. Mass spectrometry analysis. Non-denaturing ESI-MS was used to characterize PXR LBD (10 μM) in (a) the unliganded form or in the presence of (b) EE2 (20 μM), (c) TNC (20 μM), or (d) a mixture of EE2 (20 μM) and TNC (20 μM). *, acetate adducts; $, fortuitous binders 254-324 Da; , fortuitous binder 254 Da; #, non-specific EE2 adducts. TEXT PRINTED IN THE PICTURE: (b) no label printed: 296.4 Da | (c) no label printed: 444.2 Da | (d) no label printed: 740.6 Da DOUBTS OF THE COPYIST ABOUT THIS PICTURE: Panels b, c and d: the drawn structures have no label of their own. The masses in brackets are printed with no measure word and are taken as molecular masses. / Panel d: 740.6 Da is printed under two drawn structures joined by '+', so it belongs to the pair, not to a single substance. / The peak labels of the mass spectra were left out as spectrum annotations of the protein and its complexes: PXR 38,212.5 Da, Theoretical mass 38,217.7 Da, Δ 297 Da, Δ 445 Da and Δ 740 Da.
Mass spectrometry experiments were carried out on an electrospray time-of-flight mass spectrometer (LCT, Waters) equipped with an automated chip-based nanoESI device (Triversa Nanomate, Advion Biosciences). External calibration was done in the positive ion mode over the mass range m/z 500–5,000 using the multiply charged ions produced by 0.5 μM horse heart myoglobin solution diluted in water/acetonitrile 50/50 mixture acidified with 0.5% (v/v) formic acid. Purified PXR(130-434)-SRC1 was buffer exchanged against 50 mM ammonium acetate (NH4Ac), pH 8.0 using NAP5 desalting columns (illustra NAP-5 Columns, GE Healthcare Life Sciences). Protein concentration was determined spectrophotometrically (ɛ280 nm=26,210 l mol^−1 cm^−1). […] Protein concentration was set to 10 μM and different compound concentrations ranging from 20 to 80 μM were tested. Incubations lasted 5 min at 18 °C. Mass spectra were recorded using low cone voltage (Vc, 20 V) and elevated interface pressure (Pi, 5 mbar).

PXR [2] = biological target: T1, PXR; assay: Transactivation assay (dose-response), HG5LN GAL4-PXR-LBD reporter cells; details: summary of cell-based assays
Procedure: Compounds to be tested were added 24 h later, and cells were incubated at 37 °C for 16 h. […] EC50 values were measured using GraphPad Prism (GraphPad Software Inc.).

[3] = biological target: T3, fluorescein-labelled NR interaction …; assay: FP; TNC+EE2
[4] = biological target: T3, fluorescein-labelled NR interaction …; assay: FP; TNC
[5] = biological target: T3, fluorescein-labelled NR interaction …; assay: FP; apo (no ligand)
[6] = biological target: T3, fluorescein-labelled NR interaction …; assay: FP; EE2
[7] = biological target: T3, fluorescein-labelled NR interaction …; assay: FP; SR12813

| Molecule | Concentration: dose at which the compound alone induces ≈30% of the luciferase expression obtained with 3 µM SR12813 (PXR [1]) | also measured |
| --- | --- | --- |
| CC1(C)C(C=C(Cl)Cl)C1C(=O)OC(C#N)c1cccc(Oc2ccccc2)c1 (stereo not shown) [Cypermethrine] | 3000 nM |  |
| Clc1ccc(C(c2ccc(Cl)cc2)C(Cl)(Cl)Cl)cc1 [4,4’DDT] | 3000 nM |  |
| Cc1cc(C(C)(C)C)ccc1O [4-tert-butyl-2-methylphenol] | 1000 nM |  |
| -zearalanol | 1000 nM |  |
| CCCCOC(=O)c1ccccc1C(=O)OCc1ccccc1 [Benzyl butyl phthalate] | 1000 nM |  |
| N#Cc1nn(-c2c(Cl)cc(C(F)(F)F)cc2Cl)c(N)c1S(=O)(=O)C(F)(F)F [Fipronil sulfone] | 3000 nM |  |
| CO[C@H]1/C=C/O[C@@]2(C)Oc3c(C)c(O)c4c(O)c(c(/C=N/N5CCN(C)CC5)c(O)c4c3C2=O)NC(=O)/C(C)=C\C=C\[C@H](C)[C@H](O)[C@@H](C)[C@@H](O)[C@@H](C)[C@H](OC(C)=O)[C@@H]1C [Rifampicin, reference compound] | 300 nM |  |
| Clc1ccc(C(c2ccccc2Cl)C(Cl)(Cl)Cl)cc1 (stereo not shown) [2,4’DDT] | 3000 nM |  |
| Clc1cnc(Oc2ccc(Oc3ncc(Cl)cc3Cl)cc2)c(Cl)c1 [TCPOBOP, reference compound] | 1000 nM |  |
| -zearalenol | 300 nM |  |
| Clc1ccccc1C(c1ccccc1)(c1ccccc1)n1ccnc1 [Clotrimazol, reference compound] | 300 nM |  |
| C#C[C@]1(O)CC[C@H]2[C@@H]3CCc4cc(O)ccc4[C@H]3CC[C@@]21C [EE2, 17α-ethinylestradiol, reference compound] |  | Complex detected (PXR LBD; PXR 10 μM, 2 molar equivalent excess of compound (20 μM)): ~70%; Range of affinity for PXR (PXR LBD; native ESI-MS): low micromolar range; PXR agonism, cell-based assays as a whole (PXR [2]): poor PXR agonists |
| CC(=O)O[C@H]1C(=O)[C@@]2(C)[C@H]([C@H](OC(=O)c3ccccc3)[C@]3(O)C[C@H](OC(=O)[C@H](O)[C@@H](NC(=O)c4ccccc4)c4ccccc4)C(C)=C1C3(C)C)[C@]1(OC(C)=O)CO[C@@H]1C[C@@H]2O [TAXOL, reference compound] | 30 nM |  |
| C[C@H]1CCCC(=O)CCC/C=C/c2cc(O)cc(O)c2C(=O)O1 [Zearalenone] | 1000 nM |  |
| Cc1ccc(/C=C2/C(=O)C3(C)CCC2C3(C)C)cc1 (stereo not shown) [4-methylbenzylidene camphor] | 1000 nM |  |
| B1 |  | Kd [3]: 84.5 nM; Kd [4]: 450 nM; Kd [5]: 368 nM; Kd [6]: 272 nM; Kd [7]: 93 nM |
